The text below walks through data of article PMC7954794, “Protein context shapes the specificity of SH3 domain-mediated interactions in vivo” (Nature Communications, 2021).

What all share (assay type): cell-based, Saccharomyces cerevisiae
For assay [1], the system named is PPIs identified as affected by the SH3 domain deletions. The assay can be described thus: Liquid DHFR-PCA low-throughput validation of PPIs affected by SH3 deletion (Fig. S1D-E). The conditions noted are these: label = prey, liquid DHFR-PCA, prey _1 = lost, _2 = gained in screen. As for the experimental part:
Liquid DHFR-PCA low-throughput experiments were performed to validate the PPIs identified as affected by the SH3 domain deletions in the high-throughput solid DHFR-PCA screen (256 PPIs weaker or lost and 116 PPIs stronger or gained following domain deletions). Mating and the diploid selection were performed as described for the large-scale experiment, with the exception that the plates were in 384 formats. Following the second diploid selection, diploid cells were inoculated in a 96 v-shaped well plate using a robotically manipulated 96 pin tool in a synthetic complete medium with MSG at pH 6.0 with NAT and HPH. After 48 h of growth, optical density (OD) was read using a TECAN Infinite F200 Pro, and dilutions to 1 OD in sterile nanopure water were prepared. Cells were then diluted to 0.1 OD by combining 25 µl of cell suspension at OD = 1 and 225 µl of PCA selection media without agar in a 96-wells plate. Plates were incubated at 30 °C in a TECAN Infinite M Nano and OD was monitored each 15 min for 72 h.

The next assay deals with ABP1. Nature of the assay: DHFR-PCA on solid medium, bait ABP1 (Fig. 1B). The conditions noted are these: bait ABP1, label = prey; for medrep (log2 median colony size normalized to plate background, PCA score): 2-4 replicates; for Ratio (SH3-deleted/WT medrep): only significant differences showed, PPIs completely lost have a ratio of 0.1 and the gained PPIs 2.5. The text has this:
Supplement 41467_2021_21873_MOESM8_ESM.xlsx, sheet "Fig1B" | column: medsize; medrep; Ratio; Score

In the next assay the test system is Abp1 PPIs. The assay can be described thus: DHFR-PCA of Abp1 SH3-swapped baits (Fig. 2B-D, S2C, S2F). To be noted: Fig2B; bait ABP1, label = prey; Replicates 4. The text has this: Having determined that multiple PPIs require SH3s, we asked whether the latter establish PPI specificity independently from their host proteins by swapping domains (Fig. 2A). Using the second round of genome editing, we individually replaced Abp1 SH3 with the 27 yeast SH3s and 3 human Abp1 orthologs’ SH3s (CTTN, HCLS1, and DBNL, Fig. 2B). The reintroduction of its own SH3 (Abp1SH3 in Abp1) reconstitutes almost perfectly Abp1’s interaction profile (Kendall’s τ = 0.93, Fig. 2B). […] No homologous SH3 domain fully re-establishes the normal Abp1 PPI profile (Fig. 2B and Supplementary Fig. 2C). However, we observe a significant correlation (cophenetic correlation = 0.20, p value = 0.005, Fig. 2C) between the similarity of PPI profiles (Fig. 2B) and the sequence similarity of the SH3s. […] Nonetheless, a subset of SH3-dependent PPIs is only observed with the endogenous domain. For instance, Hua2 and App1, both well-characterized partners of Abp1[14],[18],[19], are only detected when Abp1 contains its own SH3 (WT or swapped via editing). A given SH3 may therefore not be fully replaceable with other paralogous or orthologous domains. This pattern is confirmed by cellular growth phenotypic analyses (Supplementary Fig. 2D, E). PPIs, SH3 sequence similarity, and growth profiles under stress conditions are correlated (Supplementary Fig. 2D, E). This relationship is particularly clear when analyzing growth on media supplemented with hygromycin.
The stuffing of YSC84 SH3 rendered the strain sterile and was therefore not used for this study as the assays require crosses. For genes containing two SH3s (BZZ1 and BEM1), a combination of this first stuffer with a second one ([…]) coding for a highly similar linker ([…]) was used, which allowed targeting each SH3 position independently. The two N-terminal domains of SLA1, which are separated by six nucleotides, were stuffed by a single stuffer. Cells containing pCAS were selected via the G418 resistance cassette from the plasmid on YPD plates (YPD + NAT 100 μg/ml (DHFR F[1,2] selection) + G418 200 µg/mL (Bioshop Canada)). Colonies were randomly selected and grown in YPD media without G418 to allow plasmid loss. The correct insertion of the stuffer was validated by PCR and Sanger sequencing. The SH3-swapped, -shuffled, and -mutated strains were constructed following a second CRISPR–Cas9 editing step with the same procedures. The stuffer sequences were targeted by specific gRNAs (one gRNA per stuffer) and replaced by PCR amplified specific SH3 (with 40 bp homology arms) or libraries of mutated SH3 domains for Deep Mutational Scanning (DMS) with 78 bp flanking homology regions. Validation of the SH3 domain insertions was done as we previously described except for DMS libraries (see below).
The overall DHFR-PCA pipeline is based on Tarassov et al.[43] and the procedures have also been published as a visualized protocol. The screens were performed with robotically manipulated pin tools (BM5-SC1, S&P Robotics Inc.). First, the preys were cherry-picked from 96-well plates to omnitrays in a 384 format on YPD + HPH solid media. Plates were then combined into the 1536 format on YPD + HPH. The array was constituted of 575 preys previously shown to interact physically with at least one SH3-containing protein as reported in BioGRID V3.4.16 along with 40 negative controls. The prey array comprised a border of control strains of two rows and two columns corresponding to the PPI between LSM8-DHFR F[1,2] and CDC39-DHFR F[3]. This double border was used to remove border effects. Preys are present in duplicate at a randomized position in the 1536 array (except for YAL041W which is present four times per array). Baits were crossed with two prey plates, resulting in four independent bait–prey tests for each PPI. Baits were grown in liquid YPD + NAT and then transferred on solid YPD + NAT omnitrays. They were then replicated on YPD + NAT omnitrays in 1536 array format. […]

For YKL013C_1, the “Ratio (Deletedscore / WTscore)” value in assay [1] (bait BZZ1-1) is given as 0.9908; in assay [1] (bait BZZ1-2), 1.121; in assay [1] (bait MYO5), 0.8543.

For YBR109C_1, the “Ratio (Deletedscore / WTscore)” value in assay [1] (bait MYO5) is 0.9988.

In the case of YDR170C, in the assay on ABP1, the “medrep (log2 median colony size normalized to plate background, PCA score)” value is given as 2.657 and the “Ratio (SH3-deleted/WT medrep)” value is 1.547.

On to YBL017C, for which, in the assay with Abp1 PPIs, the “medrep (log2 median colony size normalized to plate background)” value is reported as 1.647 and the “medsize (median colony size)” value amounted to 447.5. Further, in the assay with ABP1, the “medrep (log2 median colony size normalized to plate background, PCA score)” value stood at 2.711 and the “Ratio (SH3-deleted/WT medrep)” value is 1.6455.

On to YBR234C_1, for which the “Ratio (Deletedscore / WTscore)” value in assay [1] (bait BUD14) is 0.744.

For the substance “YPR154W (EYVEALYQFDPQQDGDLGLKPGDKVQLLEKLSPEWYKGSCNGRTGIFPANYVKPAF)”, the “medrep (log2 median colony size normalized to plate background, PCA score)” value in the assay with ABP1 is 1.556.

As for YDL229W_1, in assay [1] (bait CDC25), the “Ratio (Deletedscore / WTscore)” value is recorded as 0.6311.

As for YPR184W_2, the “Ratio (Deletedscore / WTscore)” value in assay [1] (bait LSB3) is 1.832.

Turning to YDR170C_1, the “Ratio (Deletedscore / WTscore)” value in assay [1] (bait RVS167) was found to be 0.751.

YDR265W_2: the “Ratio (Deletedscore / WTscore)” value in assay [1] (bait BEM1-1) worked out at 1.494; in assay [1] (bait) it was 1.155.

For YLL040C_1, the “Ratio (Deletedscore / WTscore)” value in assay [1] (bait LSB3) was 0.505.

Regarding YIL062C_2, the “Ratio (Deletedscore / WTscore)” value in assay [1] (bait HSE1) was 1.213.

For the substance YLR370C_1, the “Ratio (Deletedscore / WTscore)” value in assay [1] (bait BZZ1-1) came to 0.6354.

For YDR170C_2, the “Ratio (Deletedscore / WTscore)” value was found to be 1.267 in assay [1] (bait ABP1) and 1.852 in assay [1] (bait LSB3).

YER155C_1: the “Ratio (Deletedscore / WTscore)” value in assay [1] (bait BOI1) is 0.8689; in assay [1] (bait BOI2), 0.775; in assay [1] (bait BUD14), 0.7098.

With YOR181W_1, the “Ratio (Deletedscore / WTscore)” value in assay [1] (bait BBC1) was determined as 0.634; in assay [1] (bait LSB1), 0.5295; in assay [1] (bait LSB3), 0.6909; in assay [1] (bait MYO3) it was 0.5123; in assay [1] (bait MYO5), 0.7615; in assay [1] (bait PIN3), 0.5418.

As for YIL062C_1, the “Ratio (Deletedscore / WTscore)” value in assay [1] (bait BZZ1-1) is given as 0.7418.

Regarding YGL206C_2, the “Ratio (Deletedscore / WTscore)” value in assay [1] (bait BEM1-2) came to 1.078; in assay [1] (bait BZZ1-1), 0.8702; in assay [1] (bait BZZ1-2), 1.646.

As to YGL206C_1, the “Ratio (Deletedscore / WTscore)” value was 0.7295 in assay [1] (bait BBC1), 1.003 in assay [1] (bait BOI1) and 0.9141 in assay [1] (bait HOF1).

As for YER166W_1, the “Ratio (Deletedscore / WTscore)” value in assay [1] (bait RVS167) stood at 0.4913.

Regarding YDL229W_2, the “Ratio (Deletedscore / WTscore)” value in assay [1] (bait BOI1) was 1.5.

Turning to YBL017C_2, the entries for the “Ratio (Deletedscore / WTscore)” value in assay [1] (bait ABP1) and in assay [1] (bait LSB3) were 1.35 and 1.844, respectively.

Take YAL005C_2: the “Ratio (Deletedscore / WTscore)” value worked out at 0.8346 in assay [1] (bait BOI1), 1.208 in assay [1] (bait CYK3), 1.323 in assay [1] (bait HOF1) and 1.478 in assay [1] (bait).
